The results in this text go back to patent publication US20120052061A1, “THERAPIES FOR TREATING CANCER USING COMBINATIONS OF COX-2 INHIBITORS AND ANTI-HER2(ERBB2) ANTIBODIES OR COMBINATIONS OF COX-2 INHIBITORS AND HER2(ERBB2) RECEPTOR TYROSINE KINASE INHIBITORS” (Tragara Pharmaceuticals Inc., priority 2007, published 2012).

Molecules are shown by their SMILES. Where two headings read alike, the source gives them in different places.

For series [1] the following is noted: in vivo.
Series [2] is described as follows: oral pharmacokinetics, all species examined. The series is classed as in vivo, mice, rats, dogs, and monkeys. The settings on record: orally administered. The method, then: (§1) Peak plasma concentrations were achieved between 1 and 3 hours after a dose of 5 mg/kg.
For series [3] the following is noted: dog, in vivo.
The subject of series [4] is MCF-7 tumor. The settings on record: for tolerability: mouse, in vivo.
Procedure: Upon reaching an average tumor size of 100-200 mg the treatment was begun. Celecoxib and 2-(4-ethoxyphenyl)-4-methyl-1-(4-sulfamoylphenyl)-pyrrole were both formulated as a solution in 1% carboxymethyl cellulose/water and dosed orally by gavage. The endpoint for the study was when tumor volume reached 0.75 gms or 90 days, which ever came first.
For series [5] the following is noted: human, in vivo.
A short description of series [6]: oral pharmacokinetics in monkeys. The format is in vivo. The procedure: as §1
Series [7] is described as follows: oral pharmacokinetics in dogs. The series is classed as in vivo. The method, then: as §1
Series [8] can be described thus: oral pharmacokinetics in rodents. The format is in vivo, rodents (mice, rats). The procedure:
as §1

The conditions of series [9]: rat, in vivo.
The conditions of series [10]: human, in vivo, po. The procedure: as §1
Series [11] concerns BT474 tumor. As to the kind of experiment: BT474 model, tumor growth delay study (Example 9).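 Also: female SCID mice bearing subcutaneous flank BT474 xenografts, oral gavage dosing started at 100-200 mg tumors, caliper volume twice weekly, endpoint tumor 0.75 g or 90 days.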 As to conditions: po, qd to end.
Procedure: Female SCID mice were injected subcutaneously in the flank (1 mm^3 BT474 tumor) and tumor volume was evaluated using a caliper twice a week for up to 90 days, longer for responders. Upon reaching an average tumor size of 100-200 mg the treatment was begun. Celecoxib and 2-(4-ethoxyphenyl)-4-methyl-1-(4-sulfamoylphenyl)-pyrrole were both formulated as a solution in 1% carboxymethyl cellulose/water and dosed orally by gavage. […] The endpoint for the study was when tumor volume reached 0.75 gms or 90 days, which ever came first.
The test system of series [12] is human breast cancer cells (SK-BR-3). The experiment in a line: SK-BR-3 model (Example 8). The format is in vivo, nude mice. The settings on record: trastuzumab intravenously.
Procedure: Mice are injected subcutaneously in the left paw (1×10^6 tumor cells suspended in 30% Matrigel) and tumor volume is evaluated using a phlethysmometer twice a week for 30-60 days. Implantation of human breast cancer cells (SK-BR-3) into nude mice produces tumors that will reach 0.6-2 ml between 30-50 days. […] The data is expressed as the mean+/−SEM. Student's and Mann-Whitney tests are used to assess differences between means using the InStat software package.
The efficacy of both agents are determined by measuring tumor volume.
B. In a second assay, mice injected with SK-BR-3 cancer cells are then treated with 5-FU on days 12 through 15. […] The efficacy of both agents are determined by measuring tumor volume.
Setting [13] is: Groups 3 and 9: 30 mg/kg, po, daily.
Setting [14] is: Groups 4 and 10: 10 mg/kg, po, daily.
Setting [15] is: Groups 5 and 11: 3 mg/kg, po, daily.
Where [16] appears, read: Groups 6 and 12: 1 mg/kg, po, daily.
Setting [17] is: Groups 2 and 6: single agent 100 mg/kg.
Setting [18] is: Groups 3 and 7: single agent 30 mg/kg.
[19] abbreviates: third assay (C): 5-FU i.p 50 mg/kg on days 14 through 17, COX-2 inhibitor in the diet.
Where [20] appears, read: Group 5: single agent 300 mg/kg.
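For active as a single agent in MCF-7 in this document: mouse MCF-7 tumor model, oral gavage dosing started once mean tumor size reached 100-200 mg, endpoint at tumor volume 0.75 g or 90 days, whichever occurred earlier.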
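For tolerability in this document: mouse MCF-7 tumor model, oral gavage dosing started once mean tumor size reached 100-200 mg, endpoint at tumor volume 0.75 g or 90 days, whichever occurred earlier.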

Consider `CCOc1ccc(-c2cc(C)cn2-c2ccc(S(N)(=O)=O)cc2)cc1`, for which the toxicological findings entry in series [1] was “expected findings related to inhibition of cyclooxygenase”. For the same compound, the absorption entry in [2] is listed as “rapidly absorbed”. Besides, the figures for the minimum lethal dose in series [3] and in series [9] were above 2000 mg/kg and 600 mg/kg, respectively. Further, the Difference from control is listed as 2.0 in series [4] (Group 7: 0.3 mg/kg, po, daily); 2.5 in [4] (setting [13]); 1.8 in series [4] (setting [14]); 1.3 in series [4] (setting [15]); 1.6 in series [4] (setting [16]); −8.5 in series [11] (Group 4: single agent 10 mg/kg). In addition, the values for the Difference from control in [11] (setting [17]) and in series [11] (setting [18]) were −5.5 and −6.2, respectively. Also, the “Median Total Time to Endpoint” value is given as 7.5 days in [4] (Group 7: 0.3 mg/kg, po, daily); 8.0 days in series [4] (setting [13]); 7.3 days in [4] (setting [14]); 6.8 days in series [4] (setting [15]); 7.1 days in series [4] (setting [16]); 29.7 days in [11] (Group 4: single agent 10 mg/kg). Further, the “Median Total Time to Endpoint” value is 32.7 days in series [11] (setting [17]) and 32.0 days in [11] (setting [18]). Also, the tolerability result in [4] (po) is reported as “well-tolerated”. Further, in [4] (single agent, po, daily), the “active as a single agent in MCF-7” value is on record as “Neither”. Also, the “gastric or duodenal toxicity compared to placebo” value in series [5] is given as “no increase in gastric or duodenal toxicity”. For the same compound, the Oral availability in [6] is 34%; in [7], 59%; in series [8] (rodent), “greatest”. The half-life in series [8] (mice, rats, plasma, 5 mg/kg, rodents, oral, read-out: elimination half life (t1/2)) lay within 4 to 5 h. The dose exposure relationship result in [10] is reported as “linear dose exposure relationship”. Besides, the figures for the “% tumor growth delay” value in series [11] (Group 4: single agent 10 mg/kg), in [11] (setting [17]) and in series [11] (setting [18]) were −22%, −14% and −16%, respectively. Besides, the “Regressions: CR (complete regressions)” value in series [11] (Group 4: single agent 10 mg/kg), in series [11] (setting [17]) and in [11] (setting [18]) was 0/0/0 in each case. Moreover, the “Regressions: PR (partial regressions)” value in [11] (Group 4: single agent 10 mg/kg), in [11] (setting [17]) and in series [11] (setting [18]) was 0/0/0 throughout. Moreover, the “Regressions: TFS (tumor free survivors)” value in [11] (Group 4: single agent 10 mg/kg), in series [11] (setting [17]) and in series [11] (setting [18]) was 0/0/0 throughout.
`O=c1[nH]cc(F)c(=O)[nH]1` [5-FU, 5-fluorouracil]: the “reduction of tumor volume” value in [12] (second assay (B): 5-FU i.p 50 mg/kg on days 12, 13, 14, and 15, pyrrole in the diet) stood at 61%; in series [12] (setting [19]) it was 35%.
Turning to `Cc1ccc(-c2cc(C(F)(F)F)nn2-c2ccc(S(N)(=O)=O)cc2)cc1` [celecoxib, reference compound], the Difference from control in [4] (Group 8: 100 mg/kg, po, daily) is 1.6; in series [4] (setting [13]), 2.1; in series [4] (setting [14]), 2.1; in series [4] (setting [15]), 1.4; in [4] (setting [16]), 1.7; in series [11] (setting [20]) it was −1.6. In series [11] (setting [17]), this compound showed a Difference from control of −1.4. The “Median Total Time to Endpoint” value is reported as 7.1 days in [4] (Group 8: 100 mg/kg, po, daily); 7.6 days in series [4] (setting [13]); 7.6 days in series [4] (setting [14]); 6.9 days in [4] (setting [15]); 7.2 days in [4] (setting [16]); 36.6 days in series [11] (setting [20]). Moreover, the “Median Total Time to Endpoint” value in series [11] (setting [17]) came to 36.8 days. The tolerability entry in [4] (po) is on record as “well-tolerated”. Further, the “% tumor growth delay” value in series [11] (setting [20]) and in [11] (setting [17]) was −4% each time. Further, the “Regressions: CR (complete regressions)” value in series [11] (setting [20]), in series [11] (setting [17]) and in series [11] (setting [18]) was 0/0/0 throughout. Moreover, the “Regressions: PR (partial regressions)” value in series [11] (setting [20]), in series [11] (setting [17]) and in series [11] (setting [18]) was 0/0/0 throughout. The “Regressions: TFS (tumor free survivors)” value in series [11] (setting [20]), in series [11] (setting [17]) and in series [11] (setting [18]) was 0/0/0 throughout.
For the compound `O=P1(N(CCCl)CCCl)NCCCO1` (centres unmarked) [cyclophosphamide], in series [4] (Group 2: 112 mg/kg Q4D×3), the Difference from control was found to be 9.2 and the “Median Total Time to Endpoint” value was 14.7 days.
`Cc1onc(-c2ccccc2)c1-c1ccc(S(N)(=O)=O)cc1` [valdecoxib]: the “reduction of tumor volume” value in series [12] (setting [19]) was determined as 69%.
